Test results reported in patent US20150141411A1, “SUBSTITUTED 3,4-DIHYDRO-2H-PYRIDO[1,2-A]PYRAZINE-1,6-DIONE DERIVATIVES USEFUL FOR THE TREATMENT OF (INTER ALIA) ALZHEIMER'S DISEASE” (Janssen Pharmaceuticals, Inc., priority 2012, published 2015).

Tests used:
γ-secretase [1] = biological target: T1, γ-secretase (Homo sapiens, UniProt P49768); experiment: Screening for γ-secretase-modulating activity: Aβ42 in supernatant of SKNBE2 cells carrying hAPP 695 wild type (Alphalisa); type: cell-based; settings: SKNBE2 human neuroblastoma cells carrying hAPP 695 wild type, overnight incubation, Aβ42 in cell supernatant
T1 construct: endogenous in cells; host or cells: SKNBE2 human neuroblastoma cells (carrying hAPP 695 wild type as substrate)
Method: (§1) Screening was carried out using SKNBE2 human neuroblastoma cells carrying the hAPP 695—wild type, grown in Dulbecco's Modified Eagle's Medium/Nutrient mixture F-12 (DMEM/NUT-mix F-12) (HAM) provided by Invitrogen (cat no. 10371-029) containing 5% Serum/Fe supplemented with 1% non-essential amino acids, 1-glutamine 2 mM, Hepes 15 mM, penicillin 50 U/ml (units/ml) en streptomycin 50 μg/ml. Cells were grown to near confluency.
(§2) The screening was performed using a modification of the assay as described in Citron et al (1997) Nature Medicine 3: 67. Briefly, cells were plated in a 384-well plate at 10^4 cells/well in Ultraculture (Lonza, BE12-725F) supplemented with 1% glutamine (Invitrogen, 25030-024), 1% non-essential amino acid (NEAA), penicillin 50 U/ml en streptomycin 50 μg/ml in the presence of test compound at different test concentrations. The cell/compound mixture was incubated overnight at 37° C., 5% CO2. The next day the media were assayed by two sandwich immuno-assays, for Aβ42 and Aβ total.
(§3) Aβtotal and Aβ42 concentrations were quantified in the cell supernatant using the Aphalisa technology (Perkin Elmer). Alphalisa is a sandwich assay using biotinylated antibody attached to streptavidin coated donorbeads and antibody conjugated to acceptor beads. In the presence of antigen, the beads come into close proximity. The excitation of the donor beads provokes the release of singlet oxygen molecules that trigger a cascade of energy transfer in the acceptor beads, resulting in light emission. To quantify the amount of Aβ42 in the cell supernatant, monoclonal antibody specific to the C-terminus of Aβ42 (JRF/cAβ42/26) was coupled to the receptor beads and biotinylated antibody specific to the N-terminus of Aβ (JRF/AβN/25) was used to react with the donor beads. To quantify the amount of Aβtotal in the cell supernatant, monoclonal antibody specific to the N-terminus of Aβ (JRF/AβN/25) was coupled to the receptor beads and biotinylated antibody specific to the mid region of Aβ (biotinylated 4G8) was used to react with the donor beads.
(§4) To obtain the values reported in Table 3, the data are calculated as percentage of the maximum amount of amyloid Beta 42 measured in the absence of the test compound. The sigmoidal dose response curves were analyzed using non-linear regression analysis with percentage of the control plotted against the log concentration of the compound. A 4-parameter equation was used to determine the IC50.

γ-secretase [2] = biological target: T1, γ-secretase; experiment: Screening for γ-secretase-modulating activity: Aβtotal in supernatant of SKNBE2 cells carrying hAPP 695 wild type (Alphalisa); type: cell-based; settings: SKNBE2 human neuroblastoma cells carrying hAPP 695 wild type, overnight incubation, Aβtotal in cell supernatant
Method: as §1, §2, §3, §4

Compound | IC50 (γ-secretase [1]) [nM] | IC50 (γ-secretase [2]) [nM]
Cc1cn(-c2ccc3n(c2=O)C[C@@H](C)N(Cc2cc(N4CCC(C(F)(F)F)CC4)ccc2Cl)C3=O)cn1 [compound 81] | 220 | > 10000
Cc1cn(-c2ccc3n(c2=O)C[C@@H](C)N(Cc2cccc(-n4nc(C)cc4C)c2)C3=O)cn1 [compound 83] | 1350 | > 10000
Cc1cn(-c2ccc3n(c2=O)C[C@@H](C)N(Cc2ccc(Cl)c(N4CCCCC4)c2)C3=O)cn1 [compound 85] | 60 | > 10000
Cc1cn(-c2ccc3n(c2=O)C[C@@H](C)N(Cc2cc(N4CCCCC4)cc(C(F)(F)F)c2)C3=O)cn1 [compound 86] | 30 | > 10000
Cc1cn(-c2ccc3n(c2=O)CCN(Cc2cccc(-c4ccccc4)c2)C3=O)c(C)n1 [compound 87] | 7760 | > 10000
Cc1ccc2cc(CN3CCn4c(ccc(-n5cnc(C)c5)c4=O)C3=O)ccc2c1 [compound 94] | 490 | > 10000
Cc1cn(-c2ccc3n(c2=O)CCN(Cc2nccc(OCC(F)(F)F)c2C)C3=O)cn1 [compound 98] | 2880 | > 10000
Cc1cn(-c2ccc3n(c2=O)CCN(CCc2c[nH]c4ccccc24)C3=O)cn1 [compound 104] | > 10000 | > 10000
Cc1nccn1-c1ccc2n(c1=O)CCN(Cc1cccc(-c3ccccc3)c1)C2=O [compound 108] | 4790 | > 10000
O=C1c2ccc(-n3ccnc3)c(=O)n2CCN1Cc1cccc(-c2ccccc2)c1 [compound 109] | 2090 | > 10000
Cc1cn(-c2ccc3n(c2=O)C[C@@H](C)N(Cc2ccc(C)c(-n4cccn4)c2)C3=O)cn1 [compound 114] | 1910 | > 10000
Cc1cncn1-c1ccc2n(c1=O)CCCN(Cc1ccc(Cl)c(Cl)c1)C2=O [compound 122] | > 10000 | > 10000
Cc1cn(-c2ccc3n(c2=O)CCC(C)N(Cc2cc(C(F)(F)F)cc(C(F)(F)F)c2)C3=O)cn1 (stereo not shown) [compound 123] | 190 | > 10000
Cc1cn(-c2ccc3n(c2=O)CC(C)N(Cc2c[nH]c4cc(Br)ccc24)C3=O)cn1 (stereo not shown) [compound 125] | 50 | > 10000
Cc1cn(-c2ccc3n(c2=O)C[C@@H](C)N(Cc2cn(C)c4ccc(Cl)cc24)C3=O)cn1 [compound 137] | 30 | > 10000
Cc1cn(-c2ccc3n(c2=O)C[C@@H](C)N(Cc2c[nH]c4ccc(Cl)cc24)C3=O)cn1 [compound 138] | 40 | > 10000
Cc1cn(-c2ccc3n(c2=O)C[C@@H](C)N(Cc2cc(F)cc(OC(F)(F)F)c2)C3=O)cn1 [compound 139] | 950 | > 10000
Cc1cn(-c2ccc3n(c2=O)C[C@@H](C)N(Cc2cc(Br)cc(OC(F)(F)F)c2)C3=O)cn1 [compound 152] | 70 | > 10000
Cc1cn(-c2ccc3n(c2=O)C[C@@H](C)N(CCc2cc(OC(C)C)cc(C(F)(F)F)c2)C3=O)cn1 [compound 156] | 30 | > 10000
Cc1cn(-c2cc(Cl)c3n(c2=O)C[C@@H](C)N(Cc2cc(C(F)(F)F)cc(C(F)(F)F)c2)C3=O)cn1 [compound 159] | 280 | > 10000
Cc1cn(-c2c(C)cc3n(c2=O)C[C@@H](C)N(Cc2cc(C(F)(F)F)cc(C(F)(F)F)c2)C3=O)cn1 [compound 161] | 790 | > 10000
Cc1cn(-c2ccc3n(c2=O)C[C@@H](C)N(Cc2ccc(C)c(OCC4CC4)c2)C3=O)cn1 [compound 162] | 100 | > 10000
Cc1cn(-c2ccc3n(c2=O)C[C@@H](C)N(Cc2cc(OC(C)C)c(Cl)cc2F)C3=O)cn1 [compound 163] | 170 | > 10000
